Patent US8653238B2, “Compositions and methods for transport of molecules with enhanced release properties across biological barriers” (The Board of Trustees of the Leland Stanford Junior …, priority 2006, dated 2014)
Several values for one entry are separate records, joined by “and”; a condition that tells them apart may be missing. Equal values may be shown once. Non-standard residues stand in square brackets, D forms with d. Residues, ends and D or L forms follow the SMILES beside them. *: point of attachment. Paclitaxel(2'-OCO(CH2)3S) = CC(=O)O[C@H]1C(=O)[C@@]2(C)[C@H]([C@H](OC(=O)c3ccccc3)[C@]3(O)C[C@H](OC(=O)[C@H](OC(=O)CCCS*)[C@@H](NC(=O)c4ccccc4)c4ccccc4)C(C)=C1C3(C)C)[C@]1(OC(C)=O)CO[C@@H]1C[C@@H]2O; X1 = O=C(OCCCS*)Oc1ccc2nc(C3=N[C@@H](C(=O)O)CS3)sc2c1

Key:
physchem = details: buffer, pH 7.4
Procedure: The stabilities of the conjugates were assayed by measuring their decomposition when incubated in HEPES buffered saline (HBS, pH 7.4) at 37° C. using analytical HPLC. […] At appropriate time points 20 μl of the solutions were removed and analyzed by reverse phase HPLC. The percent decomposition was calculated from the integrated peak areas of the conjugate, the internal standard, and the various decomposition products.

FVB-luc+ mice skin = test: Bioluminescence after topical application to skin of luciferase transgenic mice (Example 7); format: in vivo
Text: For imaging assays to assess skin transport, hair was removed from the animals by clipping with a large hair clipper on the right flank. Subsequently, Nair® (NAIR is a registered trademark of Church & Dwight Co., Inc., Princeton N.J., USA for a depilatory cream) was applied for 90 seconds, wiped off, and the animals were washed well with wet paper towels and dried. Five days were allowed for stratum corneum regrowth before the mice were used for imaging.
Formulations for topical application of conjugates were prepared as follows. […] Luminescence was observed over approximately 60 minutes.
In vivo bioluminescence imaging was carried out as follows. Animals were imaged in a dark chamber using a cooled CCD camera (IVIS100 Xenongen Corp.) as previously described 45 and the data were analyzed using LivingImage software (Xenogen Corp.). Data are expressed as photons/ster radian/sec for each region of interest such that the data are not dependent on camera settings, chamber geometry or integration time.
The most reproducible method to evaluate the relative performance of transporters and linkers was to apply a single drop of a solution of each conjugate to the flank of anesthetized FVB-luc+ mice. The drop was allowed to remain in contact with the skin for the duration of the assay during which luminescence from the animal was monitored. […]

[1] = test system: PC3M-luc prostate cancer cell line stably transfected with luciferase; test: Cellular assay for luciferin release from conjugates (Example 6); format: cell-based
Procedure: The PC3M-luc prostate tumor cell line (Jenkins et al., Clin. Exp. Metastasis 20:733 (2003)), was plated at 60,000 cells per well in 96 well, flat bottomed plates twelve hours prior to the assay. […] The cells were washed to remove extracellular luciferin or conjugate, resuspended with the appropriate buffer, and the resultant luminescence measured using a charged coupled device camera and Living Image software (IVIS200, Xenogen Corp., Alameda, Calif.) (see Cao et al., Proc. Natl. Acad. Sci. U.S.A. 101:221 (2004)).

[2] = test system: transgenic (FVB-luc+) mice; test: Bioluminescence after intradermal injection into luciferase transgenic mice; format: in vivo
OVCA429 = test: cells
Procedure: (§1) FIG. 12 depicts an assay for GI50 (nM) of 429 Ovarian Cancer Lines, 20 min pulse with indicated compounds. The cells were pulsed for 20 min, washed (×2) and incubated for 72 hr in fresh media. For each compound, three bars are depicted, for 429 cells, 429 T cells, and 429 TP cells (from left to right).
(§2) The cells were pulsed with conjugates administered in PBS (pH=7.4) and Taxol (administered in DMSO) for 20 min. Then the solution was removed, the cells were washed twice and incubated in fresh media for 72 hr. The presence of live cells were measured based on the standard MTS assay.

OVCA429T = test: cells
Procedure: as §1, §2

OVCA429TP = test: cells
Procedure: as §1, §2

[3] = 429 cells, 20 min pulse, washed ×2, 72 hr in fresh media, conjugates in PBS pH 7.4, taxol in DMSO
[4] = 429T cells (Taxol resistant, PGP overexpression), 20 min pulse, 72 hr
[5] = 429TP cells (Taxol resistant, unknown mechanism), 20 min pulse, 72 hr

Q: With `CC(=O)N[C@H](CSSCCOC(=O)Oc1ccc2nc(C3=N[C@@H](C(=O)O)CS3)sc2c1)C(=O)N[C@H](CCCNC(=N)N)C(=O)N[C@H](CCCNC(=N)N)C(=O)N[C@H](CCCNC(=N)N)C(=O)N[C@H](CCCNC(=N)N)C(=O)N[C@H](CCCNC(=N)N)C(=O)N[C@H](CCCNC(=N)N)C(=O)N[C@H](CCCNC(=N)N)C(=O)N[C@H](CCCNC(=N)N)C(N)=O` [5a] as the compound, how does the half-life at 0.8 mg/ml (physchem) read?
A: Its half-life at 0.8 mg/ml is 3 h.

Q: What does the source list for `CC(=O)N[C@H](CSSCCCOC(=O)Oc1ccc2nc(C3=N[C@@H](C(=O)O)CS3)sc2c1)C(=O)N[C@H](CCCNC(=N)N)C(=O)N[C@H](CCCNC(=N)N)C(=O)N[C@H](CCCNC(=N)N)C(=O)N[C@H](CCCNC(=N)N)C(=O)N[C@H](CCCNC(=N)N)C(=O)N[C@H](CCCNC(=N)N)C(=O)N[C@H](CCCNC(=N)N)C(=O)N[C@H](CCCNC(=N)N)C(N)=O` [5b] (Ac-[dC](X1)[dR][dR][dR][dR][dR][dR][dR][dR]-NH2)?
A: half-life at 0.8 mg/ml (physchem): 11 h; amount of luciferin released in one hour (FVB-luc+ mice skin; 15 μL of 5 mM in 75% PEG 400/25% 200 mM NaOAc pH 6.0): 3.62e-12 mol; cumulative intradermal concentration of luciferin over one hour (FVB-luc+ mice skin; 15 μL of 5 mM in 75% PEG 400/25% 200 mM NaOAc pH 6.0, skin thickness 0.69 mm): 47 nM; time for luminescent signal to reach background ([1]; 1 minute pulse, HBS pH 7.4): approximately 1000 seconds; time over which signal increases after injection ([2]; intradermal injection): 20 min; area under the curve of bioluminescence ([2]; intradermal injection of 100 uL of 200 nM in HBS pH 7.4, two different animals): 2.54 ×10^10 photons and 2.01 ×10^10 photons; theoretical amount of luciferin in the injected sample accounted for ([2]; intradermal injection, photons emitted in 60 minutes × 400 molecules per photon): Approximately 80%

Q: Which GI50 (OVCA429; [3]) does the source give for `CC(=O)N[C@H](CSSCCCC(=O)O[C@@H](C(=O)O[C@H]1C[C@@]2(O)[C@@H](OC(=O)c3ccccc3)[C@@H]3[C@]4(OC(C)=O)CO[C@@H]4C[C@H](O)[C@@]3(C)C(=O)[C@H](OC(C)=O)C(=C1C)C2(C)C)[C@@H](NC(=O)c1ccccc1)c1ccccc1)C(=O)N[C@H](CCCNC(=N)N)C(=O)N[C@H](CCCNC(=N)N)C(=O)N[C@H](CCCNC(=N)N)C(=O)N[C@H](CCCNC(=N)N)C(=O)N[C@H](CCCNC(=N)N)C(=O)N[C@H](CCCNC(=N)N)C(=O)N[C@H](CCCNC(=N)N)C(=O)N[C@H](CCCNC(=N)N)C(N)=O` [Compound 62, Taxol C2′ Octaarginine Conjugate 62] (Ac-[dC](Paclitaxel(2'-OCO(CH2)3S))[dR][dR][dR][dR][dR][dR][dR][dR]-NH2) here?
A: The GI50 was 0.012 µM.

Q: What about the GI50 (OVCA429T; [4]) of the same compound?
A: The GI50 was 0.42 µM.

Q: What about the GI50 (OVCA429TP; [5]) of the same compound?
A: Its GI50 is 0.101 µM.

Q: For `CC(=O)N[C@H](CSSCCCC(=O)O[C@H]1C[C@H]2OC[C@@]2(OC(C)=O)[C@H]2[C@H](OC(=O)c3ccccc3)[C@]3(O)C[C@H](OC(=O)[C@H](O)[C@@H](NC(=O)c4ccccc4)c4ccccc4)C(C)=C([C@@H](OC(C)=O)C(=O)[C@]12C)C3(C)C)C(=O)N[C@H](CCCNC(=N)N)C(=O)N[C@H](CCCNC(=N)N)C(=O)N[C@H](CCCNC(=N)N)C(=O)N[C@H](CCCNC(=N)N)C(=O)N[C@H](CCCNC(=N)N)C(=O)N[C@H](CCCNC(=N)N)C(=O)N[C@H](CCCNC(=N)N)C(=O)N[C@H](CCCNC(=N)N)C(N)=O` [Compound 67, Taxol C7 Octaarginine Conjugate 67], which GI50 (OVCA429; [3]) is on record?
A: The GI50 was 0.125 µM.

Q: What about the GI50 (OVCA429T; [4]) of the same compound?
A: The GI50 was 0.225 µM.

Q: What about the GI50 (OVCA429TP; [5]) of the same compound?
A: Its GI50 is 0.093 µM.

Q: What does the source list for `O=C(O)[C@H]1CSC(c2nc3ccc(O)cc3s2)=N1` [luciferin, reference compound]?
A: change of luminescence in K+HBS ([1]; K+HBS versus HBS, 25 μM luciferin): increased slightly; area under the curve relative to 200 nM dose ([2]; mouse, in vivo): 10.24%; area under the curve of bioluminescence ([2]; mouse, in vivo, pH 7.4): 3.02×10^10 photons and 3.11×10^9 photons

Q: With `CC(=O)O[C@H]1C(=O)[C@@]2(C)[C@H]([C@H](OC(=O)c3ccccc3)[C@]3(O)C[C@H](OC(=O)[C@H](O)[C@@H](NC(=O)c4ccccc4)c4ccccc4)C(C)=C1C3(C)C)[C@]1(OC(C)=O)CO[C@@H]1C[C@@H]2O` [taxol, paclitaxel, reference compound] as the compound, how does the GI50 (OVCA429; Homo sapiens, OVCA429, pH 7.4) read?
A: The GI50 was 0.147 µM.

Q: What about the GI50 (OVCA429T; Homo sapiens) of the same compound?
A: The GI50 was 15.8 µM.

Q: What about the GI50 (OVCA429TP; Homo sapiens) of the same compound?
A: Its GI50 is 8.48 µM.
